Experimental data taken from patent US8691865B2 (AbbVie Inc., priority 2008, dated 2014).

The molecules below were run against human Cav2.2 (Homo sapiens, UniProt Q00975) (assay: Assessment of calcium channel activity using FLIPR (Ca2+ influx in IMR32 cells)). Settings: not given.
Assay type: cell-based
How it was run: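 Human neuroblastoma IMR32 cells were seeded at 1−1.2×10^5 cells/well and cultured 48 h at 37 °C before FLIPR calcium influx measurement. Percent inhibition at each concentration was calculated against the no-inhibitor signal, and IC50 came from sigmoidal dose-response fits.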

human Cav2.2, sequence (Q00975 whole entry): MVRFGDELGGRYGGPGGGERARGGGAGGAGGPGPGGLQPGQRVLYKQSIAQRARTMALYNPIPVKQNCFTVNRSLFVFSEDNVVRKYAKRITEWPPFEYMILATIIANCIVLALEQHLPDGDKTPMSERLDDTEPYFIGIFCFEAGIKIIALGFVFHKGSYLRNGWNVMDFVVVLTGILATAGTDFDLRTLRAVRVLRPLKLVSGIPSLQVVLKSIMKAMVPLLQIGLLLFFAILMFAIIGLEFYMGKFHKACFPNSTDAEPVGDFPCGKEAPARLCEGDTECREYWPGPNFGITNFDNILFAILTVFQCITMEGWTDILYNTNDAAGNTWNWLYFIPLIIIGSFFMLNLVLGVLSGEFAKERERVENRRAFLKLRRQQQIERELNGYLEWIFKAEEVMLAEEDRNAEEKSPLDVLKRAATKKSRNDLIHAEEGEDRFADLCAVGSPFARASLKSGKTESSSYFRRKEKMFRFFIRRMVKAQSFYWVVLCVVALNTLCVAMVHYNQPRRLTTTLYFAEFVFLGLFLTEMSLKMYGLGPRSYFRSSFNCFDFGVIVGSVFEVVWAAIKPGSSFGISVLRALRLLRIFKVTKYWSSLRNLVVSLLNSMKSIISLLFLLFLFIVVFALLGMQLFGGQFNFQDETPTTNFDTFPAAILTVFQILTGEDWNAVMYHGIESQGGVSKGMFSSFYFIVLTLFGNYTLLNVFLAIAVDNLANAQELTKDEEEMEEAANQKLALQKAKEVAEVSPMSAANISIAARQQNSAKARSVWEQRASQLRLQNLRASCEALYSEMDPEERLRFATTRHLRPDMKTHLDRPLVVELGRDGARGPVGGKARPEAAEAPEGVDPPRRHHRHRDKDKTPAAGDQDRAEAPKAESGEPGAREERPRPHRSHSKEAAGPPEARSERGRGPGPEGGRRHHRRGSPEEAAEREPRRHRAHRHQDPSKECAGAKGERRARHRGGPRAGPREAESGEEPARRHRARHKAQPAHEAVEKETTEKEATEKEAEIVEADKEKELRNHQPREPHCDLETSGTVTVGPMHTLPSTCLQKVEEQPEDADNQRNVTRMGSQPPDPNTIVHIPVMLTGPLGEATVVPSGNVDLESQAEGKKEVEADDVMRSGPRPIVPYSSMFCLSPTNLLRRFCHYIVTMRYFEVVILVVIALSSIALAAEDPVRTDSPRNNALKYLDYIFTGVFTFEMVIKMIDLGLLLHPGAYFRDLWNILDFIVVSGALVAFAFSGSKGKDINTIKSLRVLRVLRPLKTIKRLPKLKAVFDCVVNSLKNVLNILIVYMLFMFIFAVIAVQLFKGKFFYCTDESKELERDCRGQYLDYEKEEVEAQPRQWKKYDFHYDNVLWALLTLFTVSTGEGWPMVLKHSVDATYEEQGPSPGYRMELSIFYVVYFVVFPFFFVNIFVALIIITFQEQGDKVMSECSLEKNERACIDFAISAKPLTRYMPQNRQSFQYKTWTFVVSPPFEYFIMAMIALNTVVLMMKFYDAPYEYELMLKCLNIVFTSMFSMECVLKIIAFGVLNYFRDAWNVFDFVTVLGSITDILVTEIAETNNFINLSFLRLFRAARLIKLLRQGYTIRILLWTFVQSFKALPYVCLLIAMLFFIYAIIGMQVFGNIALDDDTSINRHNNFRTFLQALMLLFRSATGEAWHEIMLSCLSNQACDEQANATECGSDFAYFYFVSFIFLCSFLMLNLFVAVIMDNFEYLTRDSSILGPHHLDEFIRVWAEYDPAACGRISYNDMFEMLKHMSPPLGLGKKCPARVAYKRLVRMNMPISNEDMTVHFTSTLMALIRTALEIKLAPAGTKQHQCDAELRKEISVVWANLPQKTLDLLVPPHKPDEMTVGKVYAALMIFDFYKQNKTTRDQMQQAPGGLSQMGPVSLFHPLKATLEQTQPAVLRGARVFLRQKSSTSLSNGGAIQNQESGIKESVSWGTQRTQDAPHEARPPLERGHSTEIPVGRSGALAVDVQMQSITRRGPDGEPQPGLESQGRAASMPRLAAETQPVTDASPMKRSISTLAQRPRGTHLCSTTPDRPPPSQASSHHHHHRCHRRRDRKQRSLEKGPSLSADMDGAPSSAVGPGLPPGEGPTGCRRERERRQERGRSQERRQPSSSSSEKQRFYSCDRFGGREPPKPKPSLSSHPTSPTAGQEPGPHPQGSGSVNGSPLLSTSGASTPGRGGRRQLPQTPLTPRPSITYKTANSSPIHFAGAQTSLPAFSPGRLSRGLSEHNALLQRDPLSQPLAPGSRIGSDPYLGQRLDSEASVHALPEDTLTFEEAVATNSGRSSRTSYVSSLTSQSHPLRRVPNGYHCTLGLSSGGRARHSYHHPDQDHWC
human Cav2.2, sequence (P54289 25-956 partner limits assumed): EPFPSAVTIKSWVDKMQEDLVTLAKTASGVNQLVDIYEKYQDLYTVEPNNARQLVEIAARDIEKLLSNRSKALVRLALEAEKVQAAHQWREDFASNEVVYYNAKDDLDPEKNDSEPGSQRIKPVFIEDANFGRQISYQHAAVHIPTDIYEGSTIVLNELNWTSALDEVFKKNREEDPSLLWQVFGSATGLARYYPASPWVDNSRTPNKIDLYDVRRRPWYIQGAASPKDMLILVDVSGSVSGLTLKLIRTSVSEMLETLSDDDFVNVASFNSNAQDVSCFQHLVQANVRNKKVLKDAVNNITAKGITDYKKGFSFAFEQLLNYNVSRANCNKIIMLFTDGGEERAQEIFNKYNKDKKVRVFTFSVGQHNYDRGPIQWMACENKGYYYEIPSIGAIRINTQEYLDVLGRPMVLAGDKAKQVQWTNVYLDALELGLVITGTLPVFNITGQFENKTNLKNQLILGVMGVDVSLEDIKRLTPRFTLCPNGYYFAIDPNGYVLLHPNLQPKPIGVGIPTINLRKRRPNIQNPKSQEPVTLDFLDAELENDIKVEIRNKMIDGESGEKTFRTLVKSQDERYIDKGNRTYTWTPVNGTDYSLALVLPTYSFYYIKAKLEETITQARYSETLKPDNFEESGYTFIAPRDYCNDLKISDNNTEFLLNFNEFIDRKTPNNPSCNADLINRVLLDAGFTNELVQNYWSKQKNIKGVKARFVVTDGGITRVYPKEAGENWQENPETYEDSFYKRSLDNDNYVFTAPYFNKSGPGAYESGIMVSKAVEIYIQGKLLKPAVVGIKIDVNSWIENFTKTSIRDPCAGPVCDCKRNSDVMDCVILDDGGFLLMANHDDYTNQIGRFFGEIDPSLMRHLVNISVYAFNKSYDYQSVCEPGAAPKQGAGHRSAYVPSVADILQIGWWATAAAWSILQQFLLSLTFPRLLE
human Cav2.2, sequence (P54289 957-1103 partner limits assumed): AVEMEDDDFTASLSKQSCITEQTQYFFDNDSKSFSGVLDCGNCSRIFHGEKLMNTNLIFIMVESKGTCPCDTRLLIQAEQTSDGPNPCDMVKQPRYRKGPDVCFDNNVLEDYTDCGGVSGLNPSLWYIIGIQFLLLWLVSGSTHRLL
human Cav2.2, sequence (P54284 whole entry partner): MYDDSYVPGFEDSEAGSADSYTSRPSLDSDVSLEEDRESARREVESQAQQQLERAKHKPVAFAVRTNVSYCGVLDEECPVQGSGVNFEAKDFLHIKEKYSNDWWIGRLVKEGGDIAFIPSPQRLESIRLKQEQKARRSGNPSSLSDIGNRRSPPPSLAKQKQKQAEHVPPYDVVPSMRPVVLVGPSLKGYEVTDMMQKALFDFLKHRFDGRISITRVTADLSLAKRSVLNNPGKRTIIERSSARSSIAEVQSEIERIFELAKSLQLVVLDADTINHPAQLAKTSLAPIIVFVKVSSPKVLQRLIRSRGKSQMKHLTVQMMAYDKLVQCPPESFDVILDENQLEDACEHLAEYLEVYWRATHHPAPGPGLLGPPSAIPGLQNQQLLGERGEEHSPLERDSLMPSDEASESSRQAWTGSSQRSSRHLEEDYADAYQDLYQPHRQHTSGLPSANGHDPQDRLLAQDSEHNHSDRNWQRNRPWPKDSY

With `O=C(N[C@H]1CC[C@H]2CN(Cc3ccccc3C(F)(F)F)C[C@H]21)C(C1CCCCC1)C1CCCCC1` [Example 60, 2,2-dicyclohexyl-N-{(3aS,4S,6aR)-2-[2-(trifluoromethyl)benzyl]octahydrocyclopenta[c]pyrrol-4-yl}acetamide] as the molecule, how does the IC50 read?
Its IC50 is 2.43 µM.

Which IC50 does the source give for `CN[C@@H](CC(C)C)C(=O)N[C@H]1CC[C@@H]2CN(c3ccc(C(F)(F)F)nn3)C[C@@H]21` [Example 724, N^2-methyl-N-{(3aR,4S,6aS)-2-[6-(trifluoromethyl)pyridazin-3-yl]octahydrocyclopenta[c]pyrrol-4-yl}-L-leucinamide] here?
The IC50 was 22.3 µM.

How did the IC50 turn out when `CN[C@H](C(=O)N[C@H]1CC[C@@H]2CN(c3cccc(C(F)(F)F)n3)C[C@@H]21)C(C)C` [Example 764, N^2-methyl-N-{(3aR,4S,6aS)-2-[6-(trifluoromethyl)pyridin-2-yl]octahydrocyclopenta[c]pyrrol-4-yl}-L-valinamide] was run?
Its IC50 is 0.95 µM.

For `O=C(N[C@H]1CC[C@H]2CN(Cc3cccc(C(F)(F)F)c3)C[C@H]21)C(O)(C1CCCCC1)C1CCCCC1` [Example 152, 2,2-dicyclohexyl-2-hydroxy-N-{(3aS,4S,6aR)-2-[3-(trifluoromethyl)benzyl]octahydrocyclopenta[c]pyrrol-4-yl}acetamide], which IC50 is on record?
Its IC50 is 0.51 µM.

How did the IC50 turn out when `CC(C)(C)C[C@H](N)C(=O)N[C@H]1CC[C@@H]2CN(C(=O)[C@@H](N)CC(C)(C)C)C[C@@H]21` [Example 464, 4-methyl-N^1-[(3aR,4S,6aS)-2-(4-methyl-L-leucyl)octahydrocyclopenta[c]pyrrol-4-yl]-L-leucinamide] was run?
The IC50 was over 30 µM.

For `COc1ccc2[nH]cc(CN[C@H]3CC[C@@H]4CN(c5cccc(C(F)(F)F)n5)C[C@@H]43)c2c1` [Example 685, (3aR,4S,6aS)-N-[(5-methoxy-1H-indol-3-yl)methyl]-2-[6-(trifluoromethyl)pyridin-2-yl]octahydrocyclopenta[c]pyrrol-4-amine], which IC50 is on record?
The IC50 was 1.1 µM.

Which IC50 does the source give for `CC(C)NCC(=O)N[C@H]1CC[C@@H]2CN(c3ccc(C(F)(F)F)cc3)C[C@@H]21` [Example 761, N^2-isopropyl-N-{(3aR,4S,6aS)-2-[4-(trifluoromethyl)phenyl]octahydrocyclopenta[c]pyrrol-4-yl}glycinamide] here?
The IC50 was 3.59 µM.

With `CNC(C)(C)C(=O)N[C@H]1CC[C@@H]2CN(c3ccc(C(F)(F)F)cc3)C[C@@H]21` [Example 754, N^2,2-dimethyl-N-{(3aR,4S,6aS)-2-[4-(trifluoromethyl)phenyl]octahydrocyclopenta[c]pyrrol-4-yl}alaninamide] as the molecule, how does the IC50 read?
Its IC50 is 6.78 µM.

`O=S(=O)(c1cccc(C(F)(F)F)c1)N1C[C@H]2CC[C@H](NCc3cc4cc(F)ccc4[nH]3)[C@H]2C1` [Example 650, (3aR,4S,6aS)-N-[(5-fluoro-1H-indol-2-yl)methyl]-2-{[3-(trifluoromethyl)phenyl]sulfonyl}octahydrocyclopenta[c]pyrrol-4-amine] was tested. Which IC50 did it give?
The IC50 was 0.59 µM.

`O=C(CC(O)C(F)(F)F)N[C@H]1CC[C@@H]2CN(c3cccc(C(F)(F)F)n3)C[C@@H]21` (stereo partly drawn) [Example 586, 4,4,4-trifluoro-3-hydroxy-N-{(3aR,4S,6aS)-2-[6-(trifluoromethyl)pyridin-2-yl]octahydrocyclopenta[c]pyrrol-4-yl}butanamide] was tested. Which IC50 did it give?
The IC50 was 2.56 µM.

How did the IC50 turn out when `O=C(N[C@H]1CC[C@@H]2CN(c3ccccc3F)C[C@@H]21)[C@@H]1C[C@@H](F)CN1` [Example 661, (4R)-4-fluoro-N-[(3aR,4S,6aS)-2-(2-fluorophenyl)octahydrocyclopenta[c]pyrrol-4-yl]-L-prolinamide] was run?
Its IC50 is 14.7 µM.

`CN[C@H](C(=O)N[C@H]1CC[C@@H]2CN(c3cccc(OC(F)(F)F)c3)C[C@@H]21)C(C)C` [Example 758, N^2-methyl-N-{(3aR,4S,6aS)-2-[3-(trifluoromethoxy)phenyl]octahydrocyclopenta[c]pyrrol-4-yl}-L-valinamide] was tested. Which IC50 did it give?
Its IC50 is 1.42 µM.

For `CCC[C@H](NC)C(=O)N[C@@H]1CC[C@@H]2CN(Cc3ccccc3)C[C@@H]21` [Example 363, N^1-[(3aR,4R,6aS)-2-benzyloctahydrocyclopenta[c]pyrrol-4-yl]-N^2-methyl-L-norvalinamide], which IC50 is on record?
Its IC50 is over 30 µM.

For `O=C(N[C@H]1CC[C@H]2CN(Cc3ccccc3F)C[C@H]21)C(C1CCCCC1)C1CCCCC1` [Example 55, 2,2-dicyclohexyl-N-[(3aS,4S,6aR)-2-(2-fluorobenzyl)octahydrocyclopenta[c]pyrrol-4-yl]acetamide], which IC50 is on record?
Its IC50 is 1.12 µM.

`CN[C@@H](CC(C)C)C(=O)N[C@H]1CC[C@@H]2CN(c3ccccc3C)C[C@@H]21` [Example 630, N^2-methyl-N-[(3aR,4S,6aS)-2-(2-methylphenyl)octahydrocyclopenta[c]pyrrol-4-yl]-L-leucinamide] was tested. Which IC50 did it give?
The IC50 was 3.34 µM.

`CN[C@@H](CC(C)C)C(=O)N[C@H]1CC[C@@H]2CN(Cc3ccccc3)C[C@@H]21` [Example 348, N^1-[(3aR,4S,6aS)-2-benzyloctahydrocyclopenta[c]pyrrol-4-yl]-N^2-methyl-L-leucinamide] was tested. Which IC50 did it give?
Its IC50 is over 30 µM.

With `O=C(N[C@H]1CC[C@H]2CN(Cc3cccc(C(F)(F)F)c3)C[C@H]21)C(C1CCCCC1)C1CCCCC1` [Example 54, 2,2-dicyclohexyl-N-{(3aS,4S,6aR)-2-[3-(trifluoromethyl)benzyl]octahydrocyclopenta[c]pyrrol-4-yl}acetamide] as the molecule, how does the IC50 read?
The IC50 was 0.46 µM.

Which IC50 does the source give for `O=S(=O)(N[C@H]1CC[C@@H]2CN(c3cccc(C(F)(F)F)n3)C[C@@H]21)c1ccc(F)c(Cl)c1` [Example 710, 3-chloro-4-fluoro-N-{(3aR,4S,6aS)-2-[6-(trifluoromethyl)pyridin-2-yl]octahydrocyclopenta[c]pyrrol-4-yl}benzenesulfonamide] here?
Its IC50 is 5.56 µM.

For `O=C(N[C@H]1CC[C@@H]2CN(c3ccc(C(F)(F)F)cc3)C[C@@H]21)[C@@H]1C[C@@H](F)CN1` [Example 781, (4R)-4-fluoro-N-{(3aR,4S,6aS)-2-[4-(trifluoromethyl)phenyl]octahydrocyclopenta[c]pyrrol-4-yl}-L-prolinamide], which IC50 is on record?
The IC50 was 8.26 µM.

Same assay, conditions: read-out: IC50 (μM) or percent inhibition (* indicates 3 minute incubation, otherwise 60 minute); IC50; 60 minute pre-incubation with compound; IMR32 cells, 80 mM KCl depolarization

`CC(C)C(C(=O)N[C@H]1CC[C@@H]2CN(CCCCCC(c3ccc(F)cc3)c3ccc(F)cc3)C[C@@H]21)c1ccccc1` (stereo partly drawn) [Example 107, N-{(3aR,4S,6aS)-2-[6,6-bis(4-fluorophenyl)hexyl]octahydrocyclopenta[c]pyrrol-4-yl}-3-methyl-2-phenylbutanamide] was tested. Which IC50 did it give?
Its IC50 is 1.14 µM.

With `CCC[C@H](NC)C(=O)N[C@H]1CC[C@@H]2CN(Cc3cccc(C(F)(F)F)c3)C[C@@H]21` [Example 376, N^2-methyl-N^1-{(3aR,4S,6aS)-2-[3-(trifluoromethyl)benzyl]octahydrocyclopenta[c]pyrrol-4-yl}-L-norvalinamide] as the molecule, how does the IC50 read?
The IC50 was 10.6 µM.

With `O=S(=O)(N[C@H]1CC[C@H]2CN(CCCCO)C[C@H]21)c1cccc(C(F)(F)F)c1` [Example 195, N-[(3aS,4S,6aR)-2-(4-hydroxybutyl)octahydrocyclopenta[c]pyrrol-4-yl]-3-(trifluoromethyl)benzenesulfonamide] as the molecule, how does the IC50 read?
Its IC50 is 22.1 µM.

`CC(C)[C@H](N)CC(=O)N[C@@H]1CC[C@H]2CN(S(=O)(=O)c3cccc(C(F)(F)F)c3)C[C@H]21` [Example 397, (3R)-3-amino-4-methyl-N-((3aS,4R,6aR)-2-{[3-(trifluoromethyl)phenyl]sulfonyl}octahydrocyclopenta[c]pyrrol-4-yl)pentanamide] was tested. Which IC50 did it give?
The IC50 was 1.46 µM.

How did the IC50 turn out when `CCC[C@H](NC)C(=O)N[C@H]1CC[C@@H]2CN(S(=O)(=O)c3cc(C(F)(F)F)cc(C(F)(F)F)c3)C[C@@H]21` [Example 538, N^1-((3aR,4S,6aS)-2-{[3,5-bis(trifluoromethyl)phenyl]sulfonyl}octahydrocyclopenta[c]pyrrol-4-yl)-N^2-methyl-L-norvalinamide] was run?
Its IC50 is 3.75 µM.

How did the IC50 turn out when `CCC[C@H](NC)C(=O)N[C@@H]1CC[C@H]2CN(S(=O)(=O)c3ccc(F)cc3)C[C@H]21` [Example 403, N^1-{(3aS,4R,6aR)-2-[(4-fluorophenyl)sulfonyl]octahydrocyclopenta[c]pyrrol-4-yl}-N^2-methyl-L-norvalinamide] was run?
Its IC50 is 8.65 µM.

With `O=C(N[C@H]1CC[C@H]2CN(Cc3ccncc3)C[C@H]21)C(C1CCCCC1)C1CCCCC1` [Example 72, 2,2-dicyclohexyl-N-[(3aS,4S,6aR)-2-(pyridin-4-ylmethyl)octahydrocyclopenta[c]pyrrol-4-yl]acetamide] as the molecule, how does the IC50 read?
Its IC50 is 3.23 µM.

`O=S(=O)(c1cccc(C(F)(F)F)c1)N(C1CC1)[C@H]1CC[C@H]2CN(Cc3cccc(C(F)(F)F)c3)C[C@H]21` (relative stereo) [Example 204, N-cyclopropyl-3-(trifluoromethyl)-N-{(3aS*,4S*,6aR*)-2-[3-(trifluoromethyl)benzyl]octahydrocyclopenta[c]pyrrol-4-yl}benzenesulfonamide] was tested. Which IC50 did it give?
The IC50 was 1.27 µM.

Which IC50 does the source give for `FC(F)(F)c1cccc(CN2C[C@@H]3CC[C@H](N(C4CC4)C4CC4)[C@@H]3C2)c1` (relative stereo) [Example 196, (3aS*,4S*,6aR*)-N,N-dicyclopropyl-2-[3-(trifluoromethyl)benzyl]octahydrocyclopenta[c]pyrrol-4-amine] here?
The IC50 was 3.18 µM.

`CCC[C@H](NC)C(=O)N[C@H]1CC[C@@H]2CN(S(=O)(=O)c3ccc(OC)cc3)C[C@@H]21` [Example 537, N^1-{(3aR,4S,6aS)-2-[(4-methoxyphenyl)sulfonyl]octahydrocyclopenta[c]pyrrol-4-yl}-N^2-methyl-L-norvalinamide] was tested. Which IC50 did it give?
Its IC50 is 11.3 µM.

How did the IC50 turn out when `O=C(N[C@H]1CC[C@H]2CN(Cc3cc(C(F)(F)F)cc(C(F)(F)F)c3)C[C@H]21)C(C1CCCCC1)C1CCCCC1` [Example 59, N-{(3aS,4S,6aR)-2-[3,5-bis(trifluoromethyl)benzyl]octahydrocyclopenta[c]pyrrol-4-yl}-2,2-dicyclohexylacetamide] was run?
The IC50 was 0.51 µM.

With `CC[C@H](C(=O)N[C@H]1CC[C@@H]2CN([C@@H](C)c3ccccc3)C[C@@H]21)c1ccccc1` [Example 211, (2S)-2-phenyl-N-{(3aR,4S,6aS)-2-[(1S)-1-phenylethyl]octahydrocyclopenta[c]pyrrol-4-yl}butanamide] as the molecule, how does the IC50 read?
Its IC50 is 3.82 µM.
